In patent US20250230193A1, “CYCLIC COMPOUND HAVING SELECTIVE KRAS INHIBITORY EFFECT ON HRAS AND NRAS” (CHUGAI SEIYAKU KABUSHIKI KAISHA, priority 2022, published 2025):
Where a SMILES comes first, the peptide text is derived from it. Bridges are numbered along the chain shown (N, C = ends). [ ]: non-standard residue; d: D form. hPhe(3-Cl-4-CF3) = N[C@@H](CCc1ccc(C(F)(F)F)c(Cl)c1)C(=O)O; NPrPhe(4-CF3) = CCCN[C@@H](Cc1ccc(C(F)(F)F)cc1)C(=O)O; NMeGly(cPent) = CN[C@H](C(=O)O)C1CCCC1; NMeD = CN[C@@H](CC(=O)O)C(=O)O; NMeL = CN[C@@H](CC(C)C)C(=O)O; NMeA = CN[C@@H](C)C(=O)O; Aze = O=C(O)[C@@H]1CCN1; Ac4c = NC1(C(=O)O)CCC1; Sar = CNCC(=O)O

Assays:
[1] = target: GDP-bound HRAS wild-type protein (Homo sapiens, UniProt P01112); test: Binding to HRAS by surface plasmon resonance (SPR), Single Cycle Kinetics
[2] = target: GDP-bound NRAS wild-type protein (Homo sapiens, UniProt P01111); test: Binding to NRAS by surface plasmon resonance (SPR), Single Cycle Kinetics
[3] = KD ratio, GDP-bound HRAS wild-type vs GDP-bound KRAS wild-type, SPR
[4] = KD ratio, GDP-bound NRAS wild-type vs GDP-bound KRAS wild-type, SPR

Sequence of GDP-bound HRAS wild-type protein (P01112 whole entry): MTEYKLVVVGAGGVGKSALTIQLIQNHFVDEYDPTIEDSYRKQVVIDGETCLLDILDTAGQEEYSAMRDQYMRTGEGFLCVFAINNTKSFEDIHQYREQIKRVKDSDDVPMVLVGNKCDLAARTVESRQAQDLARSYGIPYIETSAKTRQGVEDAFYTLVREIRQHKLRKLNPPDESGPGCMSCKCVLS
Sequence of GDP-bound NRAS wild-type protein (P01111 whole entry): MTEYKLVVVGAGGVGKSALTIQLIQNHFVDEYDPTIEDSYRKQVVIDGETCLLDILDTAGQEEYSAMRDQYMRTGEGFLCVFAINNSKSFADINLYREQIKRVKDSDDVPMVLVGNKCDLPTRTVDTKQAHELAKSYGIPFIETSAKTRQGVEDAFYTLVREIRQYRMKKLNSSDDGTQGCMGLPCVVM

| Structure (SMILES) | HRAS/KRAS (ratio of KD value with respect to GDP-bound HRAS wild-type protein to KD value with respect to KRAS) ([1]; class symbols) | NRAS/KRAS (ratio of KD value with respect to GDP-bound NRAS wild-type protein to KD value with respect to KRAS) ([2]; class symbols) | HRAS/KRAS (ratio of KD value with respect to HRAS to KD value with respect to KRAS) [1, 3] | NRAS/KRAS (ratio of KD value with respect to NRAS to KD value with respect to KRAS) [2, 4] | further results |
| --- | --- | --- | --- | --- | --- |
| CCC(CC)[C@H]1C(=O)N(C)[C@H](C(=O)N(C)C)CC(=O)N(C)[C@@H](COC)C(=O)N[C@@H]([C@@H](C)CC)C(=O)N(C)CC(=O)N(C)[C@H]2C/C=C\CCN(C2=O)[C@@H](Cc2ccc(C(F)(F)F)cc2)C(=O)N(C)CC(=O)N[C@@H](CCc2ccc(C(F)(F)F)c(Cl)c2)C(=O)N2CC3(CC3)C[C@H]2C(=O)NC2(CC(C)(C)C2)C(=O)N1C [PP2965] | A (a compound having 10 or more and less than 20 is denoted as A) | AA (a compound having 20 or more is denoted as AA) |  |  |  |
| CCO[C@@H]1C[C@H]2C(=O)NC3(CCCC3)C(=O)N(C)[C@@H](C3CCCC3)C(=O)N(C)[C@H](C(=O)N3CCOCC3)CC(=O)N(C)[C@@H](CC)C(=O)N[C@@H]([C@@H](C)CC)C(=O)N(C)CC(=O)N(C)[C@H]3C[C@@H](C)CCN(C3=O)[C@@H](Cc3ccc(C(F)(F)F)cc3)C(=O)N(C)CC(=O)N[C@@H](CCc3cc(F)c(C(F)(F)F)c(F)c3)C(=O)N2C1 [PP1029] |  |  | B (a compound having 3 or more and less than 10 is denoted as B) | C (A compound having a KD ratio of 0.1 or more and less than 3 is denoted as C) |  |
| CCO[C@@H]1C[C@H]2C(=O)NC3(CCC3)C(=O)N(C)[C@@H](C3CCCC3)C(=O)N(C)[C@H](C(=O)N(C)CC)CC(=O)N(C)[C@@H](CC(F)(F)F)C(=O)N[C@@H]([C@@H](C)CC)C(=O)N(C)CC(=O)N(C)[C@H]3C/C=C\CCN(C3=O)[C@@H](Cc3ccc(C(F)(F)F)cc3)C(=O)N(C)CC(=O)N[C@@H](CCc3cc(F)c(C(F)(F)F)c(F)c3)C(=O)N2C1 [PP1701] |  |  |  |  | HRAS/KRAS (ratio of KD value for HRAS to KD value for KRAS) [1, 3]: A (a compound having 10 or more and less than 20 is denoted as A); NRAS/KRAS (ratio of KD value for NRAS to KD value for KRAS) [2, 4]: A (a compound having 10 or more and less than 20 is denoted as A) |
| CCO[C@@H]1C[C@H]2C(=O)NC3(CCC3)C(=O)N(C)[C@@H](C3CCCC3)C(=O)N(C)[C@H](C(=O)N3CCOCC3)CC(=O)N(C)[C@@H](CCOC)C(=O)N[C@@H]([C@@H](C)CC)C(=O)N(C)CC(=O)N(C)[C@H]3CCCCCN(C3=O)[C@@H](Cc3ccc(F)cc3)C(=O)N(C)CC(=O)N[C@@H](CCc3cc(F)c(C(F)(F)F)c(F)c3)C(=O)N2C1 [PP1180] |  |  | B (a compound having 3 or more and less than 10 is denoted as B) | B (a compound having 3 or more and less than 10 is denoted as B) |  |
| CCO[C@@H]1C[C@H]2C(=O)NC3(CC(C)(C)C3)C(=O)N(C)[C@@H](C3CCCC3)C(=O)N(C)[C@H](C(=O)N(C)CC)CC(=O)N(C)[C@@H](CC(C)C)C(=O)N[C@@H]([C@@H](C)CC)C(=O)N(C)CC(=O)N(C)[C@H]3C/C=C\CCN(C3=O)[C@@H](Cc3ccc(C(F)F)cc3)C(=O)N(C)CC(=O)N[C@@H](CCc3ccc(C(F)(F)F)c(Cl)c3)C(=O)N2C1 [PP2829] | A (a compound having 10 or more and less than 20 is denoted as A) | A (a compound having 10 or more and less than 20 is denoted as A) |  |  |  |
| CCCN1C(=O)[C@@H]2CCN2C(=O)[C@H](C)N(C)C(=O)[C@H]([C@@H](C)CC)NC(=O)[C@H](CC(C)C)N(C)C(=O)C[C@@H](C(=O)N(C)C)N(C)C(=O)[C@H](C2CCCC2)N(C)C(=O)C2(CCC2)NC(=O)[C@@H]2CCCN2C(=O)[C@H](CCc2ccc(C(F)(F)F)c(Cl)c2)NC(=O)CN(C)C(=O)[C@@H]1Cc1ccc(C(F)(F)F)cc1 [PP0435] ([NMeL]I[NMeA][Aze][NPrPhe(4-CF3)][Sar][hPhe(3-Cl-4-CF3)]P[Ac4c][NMeGly(cPent)][NMeD]-NMe2; lactam N-11) |  |  |  |  | HRAS/KRAS (ratio of KD value with respect to GDP-bound HRAS wild-type protein to KD value with respect to KRAS) ([1]; SPR): C (A compound having a KD ratio of 0.1 or more and less than 3 is denoted as C); NRAS/KRAS (ratio of KD value with respect to GDP-bound NRAS wild-type protein to KD value with respect to KRAS) ([2]; SPR): C (A compound having a KD ratio of 0.1 or more and less than 3 is denoted as C) |
